{"source": "patent US11413328B2", "about": "“Methods for treating inflammatory conditions of the lungs” (priority 2016, dated 2022)", "key": {"[1]": {"test_system": "murine house dust mite/Freunds complete adjuvant driven model of allergic asthma", "test": "Total and differential cell counts in BALF, HDM asthma model (Example 2)", "type": "in vivo, BALB/c mice", "details": "dexamethasone orally 1 mg/kg BID day 14; 48 hours post challenge", "procedure": "Female 7-10 weeks old BALB/c mice were randomly allocated into 7 study groups one day prior to study start and subcutaneously (SC) sensitized to house dust mite (100 μg HDM in 200 μL saline plus Freunds complete adjuvant in 0.9% saline). Mice were then intranasally (IN) challenged with HDM on day 14 (HDM 25 μg in 50 μL of saline). […] The initial dose was administered 60 minutes prior to challenge, and the subsequent doses approximately 6 hours apart. Airway inflammation: At 48 hours post challenge, bronchoalveolar lavage was performed washing the lungs with 3 volumes of cold PBS (0.4; 0.3 and 0.3 mL, total 1 mL). Total and differential leucocyte cell counts were determined on an automated haematological analyser Sysmex XT-2000iV."}, "[2]": {"test_system": "microbiota of the intestine", "test": "16S microbiota analysis, interventional defensin treatment in diet-induced obese mice (Example 11)", "type": "in vivo", "details": "intervention", "from_the_text": "The experiment elucidates the effect of hBD2 and HD5 on the microbiota in diet-induced obese mice. A run-in period of 13 weeks where mice were fed a very HFD (60% energy from fat) preceded the intervention. Only mice meeting the criteria of a minimum of 12 gram weight gain (approximately 50% of initial bodyweight) during the run-in period were included in the final analyses. […] They were exposed to all experimental tests, but excluded from the analyses.\nBefore the intervention all mice were MR scanned. Cages of mice were allocated to experimental groups based on their fat mass. All subsequent measures were paired with data from the same mouse before the intervention. A LFD (low fat diet) reference group was running in parallel. As controls for the intervention 2 additional groups were included: 1 very HFD and 1 LFD. Experimental mice stayed on the very HFD during the intervention. The mice were on the experimental diet for 10 weeks. They were co-housed throughout the experiment, 4 mice per cage, 3 cages per group. All tests ran over 3 days, 1 cage per group per day.\nMicrobial analyses were carried out to study the microbiota of the intestine. Longitudinal 16S characterization was conducted on 4 paired samples from 60 mice, 240 samples in total. Each mouse was sampled prior to diet change, 1 week post diet change, 4 weeks post diet change and at termination, thus ensuring a thorough characterization of the faecal microbiota as a result of defensin treatment."}, "[3]": {"test_system": "microbiota of the intestine", "test": "16S microbiota analysis, prophylactic defensin treatment in high fat diet model (Example 10)", "type": "in vivo, mice", "from_the_text": "Mice were housed in trios, 4 cages per group. Feed intake was registered daily just before lights were turned off at […]. Individual mice were subjected to experimental procedures in altered order both group and cage wise. Mice were kept at room temperature under a 12-hour light/dark cycle at SPF standard conditions. The treatment regime is described in FIG. 38. Mice were fed either a high fat diet (HFD) or a low fat (LF) control diet. The HFD contained 4 subgroups; 1 hBD2, 1 HD5, 1 hBD2/HD5 and 1 standard HFD without supplementation of defensins. Defensin concentration was 1.2 mg hBD2 per kg mouse per day. HD5 was given in equimolar concentration to hBD2. […] Microbial analyses were carried out to study the microbiota of the intestine. Longitudinal 16S characterization was conducted on 4 paired samples from 60 mice, 240 samples in total. Each mouse was sampled prior to diet change, 1 week post diet change, 4 weeks post diet change and at termination, thus ensuring a thorough characterization of the faecal microbiota as a result of defensin treatment."}, "[4]": {"test_system": "Dextran Sodium Sulphate (DSS) induced colitis model", "test": "Acute 10-day DSS induced colitis model (Example 7)", "type": "in vivo, mice", "details": "Pred 1 mg/kg orally daily", "procedure": "To determine and assess the anti-inflammatory effect of “hBD-2-albumin fusion C-terminal” in an acute 10-day Dextran Sodium Sulphate (DSS) induced colitis model in mice.\n“hBD-2-albumin C-terminal” was administered intravenously via the tail vein or subcutaneously with the use of a sterile 25G needle in a dosing volume of 10 ml/kg body weight. The animals received 1 dose daily for 10 […] days. The active control Prednisolone (Pred) was given orally by gavage at a dose of 1 mg/kg in a dosing volume of 10 ml/kg body weight OD."}}}
{"molecule": "C[C@@H]1C[C@H]2[C@@H]3CCC4=CC(=O)C=C[C@]4(C)[C@@]3(F)[C@@H](O)C[C@]2(C)[C@@]1(O)C(=O)CO", "note": "[Dexamethasone, reference compound]", "values": [{"measurement": "neutrophil count in BALF", "setting": "[1]", "result": "failed to inhibit"}]}
{"molecule": "human intestinal alpha defensin 5 (ATCYCRTGRCATRESLSGVCEISGRLYRLCCR; listed as Homo sapiens) [HD5]", "values": [{"measurement": "abundance of Alloprevotella in the colon", "setting": "[2]; HD5 p<0.02", "result": "increased the abundance of Alloprevotella statistically significantly"}, {"measurement": "relative abundance of Bifidobacteriaceae in the small intestine", "setting": "[2]; hBD2 p<0.0001", "result": "trend towards HD5 increasing the abundance"}, {"measurement": "effect on microbial presence / microbial abundance", "setting": "[3]; 1.2 mg hBD2 per kg per day in feed, HD5 equimolar, combination 50% + 50%", "result": "affected primarily the microbial abundance"}, {"measurement": "abundance of Allobaculum in the small intestine", "setting": "[3]; prophylaxis, p<0.02", "result": "statistically significant increase"}]}
{"molecule": "C[C@]12C=CC(=O)C=C1CC[C@@H]1[C@@H]2[C@@H](O)C[C@@]2(C)[C@H]1CC[C@]2(O)C(=O)CO", "note": "[Pred, Prednisolone]", "values": [{"measurement": "histological injury, proximal part of the colon", "setting": "[4]", "result": "failed to significantly reduce"}, {"measurement": "DAI", "setting": "[4]; day 9, p<0.05", "result": "significant inhibition"}, {"measurement": "histological injury, distal colon", "setting": "[4]; p<0.01", "result": "did reduce"}]}
